Results taken from patent US20110212027A1, “RADIATIVE HEATING FOR DRUG DELIVERY AND OTHER APPLICATIONS” (priority 2008, published 2011).

Experiment: Release from reservoir devices submerged in PBS
Assay type: physicochemical
Conditions: physiologically-triggerable membrane
Protocol: The devices were constructed as follows. Two 1 cm diameter disks were punched out of a membrane sheet produced as described above. A 1 cm length of ⅜ inch OD (¼ inch ID) silicone tubing (currently used for catheters) was then cut and a membrane disk was glued to one side of the tube using a LockTite low viscosity quick drying adhesive. (1 inch=2.54 cm) After 30 minutes of drying (under light pressure), the membrane-backed tube was then filled with drug or indicator solution. Sodium fluorescein (100 mg/mL in saline) and bupivacaine (10 mg/mL in saline, as well as bupivacaine powder in a saturated saline solution with solid chunks of drug also added to give a larger drug reservoir for release) were tested. The top membrane was then attached using glue following the same technique as for the bottom membrane and set for 30 minutes under light pressure. […] For flux testing, the devices were submerged in 5 mL of PBS at a specific test temperature, with samples taken at predetermined intervals to track the release kinetics. For the microwave antenna devices, two 0.4 cm […] strips of aluminum foil were glued to the outside of the device, one at the top of the device and the other at the bottom of the device (with a 0.2 mm gap in the center) using the same adhesive.

For CCCCN1CCCCC1C(=O)Nc1c(C)cccc1C (centres unmarked) [bupivacaine], the “release of bupivacaine from device into PBS” value (37° C.) was “below the minimal effective dose” and the “release of bupivacaine from device into PBS” value (50° C.) was “above the minimal effective dose”.
